Key:
[1] = test system: H460 (NRF2 pathway mutant cell line with high AKR1C3 expression); test: In vitro cell proliferation assay (CellTiter-Glo), H460; type: cell-based; conditions: Homo sapiens, NCI-H460, 72 h; H460 cells, 3 days, CellTiter-Glo, top concentration 10 μM; read-out: H460 Qualified absolute AC50
Method in brief: (§1)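 Cells seeded day 1 (H460 800/well, Hara 2000/well) in RPMI-1640 with 10% FBS; compounds added day 2 as 8-point 1:5 dilutions from 10 μM top. After 3 days at 37 °C, viability read by CellTiter-Glo luminescence, normalized to DMSO and MG132 (30 μM) controls to derive percentage activity and AC50.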

[2] = test system: Hara (NRF2 pathway wild type cell line with low AKR1C3 expression); test: In vitro cell proliferation assay (CellTiter-Glo), Hara; type: cell-based; conditions: 72 h; Hara cells, 3 days, CellTiter-Glo, top concentration 10 μM; read-out: HARA Qualified absolute AC50
Method in brief: as §1

Row | Structure (SMILES) | AC50 [1] | AC50 [2]
1 | CN1c2ccc(F)cc2C(=O)CC12CCN(C(=O)NCc1ccc(F)c(NS(C)(=O)=O)c1)CC2 [Example 55, 6′-fluoro-N-(4-fluoro-3-(methylsulfonamido)benzyl)-1′-methyl-4′-oxo-3′,4′-dihydro-1′H-spiro[piperidine-4,2′-quinoline]-1-carboxamide] | 150 nM | 5170 nM
2 | CN1c2ccc(F)cc2C(=O)CC12CCN(C(=O)NCc1cc(NCCO)c(F)cc1F)CC2 [Example 17, N-(2,4-difluoro-5-((2-hydroxyethyl)amino)benzyl)-6′-fluoro-1′-methyl-4′-oxo-3′,4′-dihydro-1′H-spiro[piperidine-4,2′-quinoline]-1-carboxamide] | 30 nM | > 10000 nM
3 | O=C1CC2(CCN(C(=O)NCc3ccc(F)nc3)CC2)Nc2c(F)cc(F)cc21 [Example 125, 6′,8′-difluoro-N-((6-fluoropyridin-3-yl)methyl)-4′-oxo-3′,4′-dihydro-1′H-spiro[piperidine-4,2′-quinoline]-1-carboxamide] | 1170 nM | > 10000 nM
4 | Nc1ccc(CNC(=O)N2CCC3(CC2)CC(=O)c2cc(F)ccc2N3)c(F)c1 [Example 98, N-(4-amino-2-fluorobenzyl)-6′-fluoro-4′-oxo-3′,4′-dihydro-1′H-spiro[piperidine-4,2′-quinoline]-1-carboxamide] | 498 nM | > 10000 nM
5 | O=C1CC2(CCN(C(=O)NCc3ncccc3O)CC2)Nc2c(F)cc(F)cc21 [Example 63, 6′,8′-difluoro-N-((3-hydroxypyridin-2-yl)methyl)-4′-oxo-3′,4′-dihydro-1′H-spiro[piperidine-4,2′-quinoline]-1-carboxamide] | 222 nM | > 10000 nM
6 | CN1c2ccc(F)cc2C(=O)CC12CCN(C(=O)NCc1ccc(F)c(N)c1F)CC2 [Example 42, N-(3-amino-2,4-difluorobenzyl)-6′-fluoro-1′-methyl-4′-oxo-3′,4′-dihydro-1′H-spiro[piperidine-4,2′-quinoline]-1-carboxamide] | 94 nM | > 10000 nM
7 | Cc1cc(CNC(=O)N2CCC3(CC2)CC(=O)c2cc(F)ccc2N3)ccc1N [Example 119, N-(4-amino-3-methylbenzyl)-6′-fluoro-4′-oxo-3′,4′-dihydro-1′H-spiro[piperidine-4,2′-quinoline]-1-carboxamide] | 1020 nM | > 10000 nM
8 | O=C1CC2(CCN(C(=O)NCc3cccc(-c4cnco4)c3)CC2)Nc2c(F)cc(F)cc21 [Example 35, 6′,8′-difluoro-N-(3-(oxazol-5-yl)benzyl)-4′-oxo-3′,4′-dihydro-1′H-spiro[piperidine-4,2′-quinoline]-1-carboxamide] | 77 nM | 2720 nM
9 | COC1CN(c2cc(CNC(=O)N3CCC4(CC3)CC(=O)c3cc(F)ccc3N4)ccc2F)C1 [Example 102, 6′-fluoro-N-(4-fluoro-3-(3-methoxyazetidin-1-yl)benzyl)-4′-oxo-3′,4′-dihydro-1′H-spiro[piperidine-4,2′-quinoline]-1-carboxamide] | 555 nM | 3720 nM
10 | Cc1cc(N)ccc1CNC(=O)N1CCC2(CC1)CC(=O)c1cc(F)ccc1N2 [Example 116, N-(4-amino-2-methylbenzyl)-6′-fluoro-4′-oxo-3′,4′-dihydro-1′H-spiro[piperidine-4,2′-quinoline]-1-carboxamide] | 935 nM | > 10000 nM
11 | CN1c2ccc(F)cc2C(=O)CC12CCN(C(=O)NCc1ccc(F)c(NCCO)c1F)CC2 [Example 91, N-(2,4-difluoro-3-((2-hydroxyethyl)amino)benzyl)-6′-fluoro-1′-methyl-4′-oxo-3′,4′-dihydro-1′H-spiro[piperidine-4,2′-quinoline]-1-carboxamide] | 451 nM | > 10000 nM
12 | CN1c2ccc(F)cc2C(=O)CC12CCN(C(=O)NCc1ccc(F)c(C(=O)NCCO)c1)CC2 [Example 82, 6′-fluoro-N-(4-fluoro-3-((2-hydroxyethyl)carbamoyl)benzyl)-1′-methyl-4′-oxo-3′,4′-dihydro-1′H-spiro[piperidine-4,2′-quinoline]-1-carboxamide] | 356 nM | > 10000 nM
13 | O=C1CC2(CCN(C(=O)NCc3ccc(F)c(CO)c3)CC2)Nc2ccc(F)cc21 [Example 83, 6′-fluoro-N-(4-fluoro-3-(hydroxymethyl)benzyl)-4′-oxo-3′,4′-dihydro-1′H-spiro[piperidine-4,2′-quinoline]-1-carboxamide] | 361 nM | > 10000 nM
14 | Nc1cc(F)c(CNC(=O)N2CCC3(CC2)CC(=O)c2cc(F)ccc2N3)cc1F [Example 49, N-(4-amino-2,5-difluorobenzyl)-6′-fluoro-4′-oxo-3′,4′-dihydro-1′H-spiro[piperidine-4,2′-quinoline]-1-carboxamide] | 113 nM | > 10000 nM
15 | Nc1c(F)cc(CNC(=O)N2CCC3(CC2)CC(=O)c2cc(F)ccc2N3)cc1F [Example 65, N-(4-amino-3,5-difluorobenzyl)-6′-fluoro-4′-oxo-3′,4′-dihydro-1′H-spiro[piperidine-4,2′-quinoline]-1-carboxamide] | 222 nM | > 10000 nM
16 | O=C1CC2(CCN(C(=O)NCc3ccc(F)c(NS(=O)(=O)C4CC4)c3)CC2)Nc2ccc(F)cc21 [Example 133, N-(3-(cyclopropanesulfonamido)-4-fluorobenzyl)-6′-fluoro-4′-oxo-3′,4′-dihydro-1′H-spiro[piperidine-4,2′-quinoline]-1-carboxamide] | 1770 nM | > 10000 nM
17 | NS(=O)(=O)c1cc(CNC(=O)N2CCC3(CC2)CC(=O)c2cc(F)ccc2N3)ccc1F [Example 30, 6′-fluoro-N-(4-fluoro-3-sulfamoylbenzyl)-4′-oxo-3′,4′-dihydro-1′H-spiro[piperidine-4,2′-quinoline]-1-carboxamide] | 61 nM | > 10000 nM
18 | NC(=O)c1c(F)ccc(CNC(=O)N2CCC3(CC2)CC(=O)c2cc(F)ccc2N3)c1F [Example 109, N-(3-carbamoyl-2,4-difluorobenzyl)-6′-fluoro-4′-oxo-3′,4′-dihydro-1′H-spiro[piperidine-4,2′-quinoline]-1-carboxamide] | 690 nM | > 10000 nM
19 | COc1cc(F)ccc1CNC(=O)N1CCC2(CC1)CC(=O)c1cc(F)ccc1N2C [Example 2, 6′-fluoro-N-(4-fluoro-2-methoxybenzyl)-1′-methyl-4′-oxo-3′,4′-dihydro-1′H-spiro[piperidine-4,2′-quinoline]-1-carboxamide] | 5 nM | > 10000 nM
20 | O=C1CC2(CCN(C(=O)NCc3ccc(OC(F)F)c(F)c3)CC2)Nc2c(F)cc(F)cc21 [Example 108, N-(4-(difluoromethoxy)-3-fluorobenzyl)-6′,8′-difluoro-4′-oxo-3′,4′-dihydro-1′H-spiro[piperidine-4,2′-quinoline]-1-carboxamide] | 646 nM | 3180 nM
21 | O=C1CC2(CCN(C(=O)NCc3ccon3)CC2)Nc2ccc(F)cc21 [Example 118, 6′-fluoro-N-(isoxazol-3-ylmethyl)-4′-oxo-3′,4′-dihydro-1′H-spiro[piperidine-4,2′-quinoline]-1-carboxamide] | 1010 nM | > 10000 nM
22 | COc1cc(CNC(=O)N2CCC3(CC2)CC(=O)c2cc(F)cc(F)c2N3)ccn1 [Example 115, 6′,8′-difluoro-N-((2-methoxypyridin-4-yl)methyl)-4′-oxo-3′,4′-dihydro-1′H-spiro[piperidine-4,2′-quinoline]-1-carboxamide] | 930 nM | > 10000 nM

Source: patent US11970497B2, “Tricyclic AKR1C3 dependent KARS inhibitors” (Novartis AG, priority 2019, dated 2024)
